In article PMC9025605, “Polymerized β-Cyclodextrin-Based Injectable Hydrogel for Sustained Release of 5-Fluorouracil/Methotrexate Mixture in Breast Cancer Management: In Vitro and In Vivo Analytical Validations” (Pharmaceutics, 2022):
Where two headings read alike, the source gives them in different places.

Assays:
[1] = Pharmacokinetic study after intratumoral injection (plasma, HPLC); format: in vivo, albino female rats; settings: for Cmax: rat plasma
Protocol: The present in vivo works was performed on albino female rats (weighing 185 ± 15.1 g). The ethical approval of all the experiments was issued by the Faculty of Pharmacy, Al-Azhar University, under no AZ-AS/PH/2/C/2021. The rats were acclimatized at room temperature with a 12-h light/12-h dark cycle. Tumor-induction of 48 female rats were randomly divided into the four independent groups (with n = 12 per each group × triple trials); G1 was the controlled group, which is positive control and were received no any type of medications; G2 received a sole dose of 5-FU saline solution (100 mg/kg); G3 received a combined mixture of 5-FU/MTX saline solution (respectively, 100 and 40 mg/kg); and, finally, G4 received 5-FU/MTX hydrogel. The sole 5-FU and/or combined with MTX doses in normal saline were injected into rats using normal syringes, while the injectable medicated hydrogel doses were injected using a mixing syringe device (Doowon Meditec Corp., Youngin City, Republic of Korea). After finishing the administration processes, blood samples were collected at certain time intervals (0.5, 1, 2, 4, 6, 8, 10, 12, and 14 h). HPLC chromatographic analysis was utilized for the detection of drug concentrations.
One mL of a plasma sample in an Eppendorf tube was initially mixed with phosphate buffer (0.2 mL of 0.5 M at pH 8), after being mixed in a vortex, and an ethyl acetate solution (4.0 mL) was added and mixed in a vortex for 1 min. Then, the contents of the tube were centrifuged at 5000 rpm and temperature 10 °C for 5 min. The organic phase was taken and evaporated until dry, by using a stream of nitrogen gas at 55 °C. The drug mixture in the residue was reconstituted by a solution of potassium dihydrogen phosphate (100 µL of 0.01 M, at pH 4.0), and, then, the resulted solution was filtrated through a 0.2 μm filter syringe, before transferring into autosampler vials of the chromatographic analysis.
A high-performance liquid chromatography, HPLC (Parkin Elmer, JASCO Corporation, Tokyo, Japan), equipped with an autosampler, was used through this study. The detection method was performed using a variable wavelength UV detector, which adjusted at 266 nm for both drugs. The analytical Phenomenex, C18 symmetry RPh-column (4.6 × 250 mm; 5 µm PS) (Cap cell Pak UG120, Shiseido, Tokyo, Japan), was used at 40 °C. The mobile phase was an isocratic mixture (89:11, v/v) of, respectively, methanol and potassium dihydrogen phosphate (10 mM and adjusted to pH 4 with the aid orthophosphoric acid), which was pumped at a flow rate of 1.0 mL/min. The injected volume was 20 µL.
The concentrations of 5-FU and MTX in different rats’ plasma samples (n = 6) were calculated from the corresponding calibration curves equation, developed in the above HPLC method. The plasma concentration-time (Cp/) curve of 5FU/MTX (plasma concentrations; µg/mL in case of using a vehicle of saline, and ng/mL in case of using a vehicle hydrogel) was constructed for both drugs. Next, from the constructed (Cp/t) curves, all the common pharmacokinetic parameters of both drugs were determined using the following Equation (1). […] Moreover, the area under the Cp/t curve (AUC0-24 and AUC0-∞) (ng. h/mL) was measured using the trapezoidal rule to indicate the extent of drug absorption. The peak Cp (Cmax), the time corresponding to the maximum Cp (Tmax), and the half-life, t1/2 (h), were calculated.

[2] = test system: breast tumor (chemically induced breast cancer); experiment: Effect on tumor growth (tumor volume, % inhibition); format: in vivo, female rats; settings: negative = tumor growth, read from Figure 6
Protocol: For transplantation experiments, recipient syngeneic female rats (6–7 weeks old) were anesthetized with an intramuscular injection of ketamine (8.0 mg/kg dose) and xylazine (10 mg/kg dose). Breast cancer was induced to the investigated rats by chemical induction using […], previously reported techniques. […] The tumor size for all animals was examined using a Vernier caliper (micrometer-Ozaki Ltd., Tokyo, Japan) and calculated using the following Equation (2). TV (mm^3) = 1/2 × Length × Width^2(2)
Thus, the changes in a tumor volume in rats were determined every 5 days for 15 days after administration of the injectable medicated hydrogel (contains a concentration of 100 and 40 mg/kg, respectively, for 5-FU and MTX). The antitumor effect was monitored via measuring both the relative tumor volume (RTV), representing the tumor volume after treatment, using Equation (3). (3) % RTV=(Vt)/(V0)×100 where, Vt represents the tumor volume at each time interval, and V0 is a tumor volume directly after drug injection. The % of tumor volume inhibition was calculated using the following Equation (4). (4) % Inhibition =1−(Vt)/(V0)×100

[3] = In vitro release of 5-FU and MTX from the medicated hydrogel in PBS at 37 °C; format: physicochemical; settings: for duration of quantitative release from hydrogel: 0.1% w/v; for drug released from hydrogel within the first day / drug released from hydrogel within the second day: 0.1% w/v drug in hydrogel
Protocol: Several samples (n = 6) of the medicated hydrogel (0.5 g, containing 0.5 mg of each 5-FU and MTX), were placed in 2-mL glass vials and allowed to be incubated at 4 °C for 2 h. Next, one mL of PBS was added above the formulated hydrogel mass and allowed to be incubated in a thermostatic water bath under a shaking rate of 50 rpm at 37 °C. After specific time intervals (each 24 h), 700 µL of the supernatant was withdrawn and replaced immediately with a fresh-prepared PBS, previously incubated at the same temperature to ensure the sink conditions. This process of sample withdrawal and replacing was allowed to continue until the complete clearance or full release of both two incorporated drugs from the hydrogel samples. Thus, the concentration of 5-FU and MTX in the mixture, in each collected sample, was measured simultaneously at 266 nm and 302 nm, respectively, with the aid of the spectrophotometric method, as mentioned before.

[4] = set-up: method as in PMID 1246307, PMID 18794772, PMID 15018974; settings: cited from earlier work
mammary gland tissues = experiment: Histopathological examination of tumor masses (H and E); format: in vivo, female rats; settings: tumor-bearing rats versus untreated G1
Protocol: Several tissue samples (n = 3) were taken from the tumor masses of the induced mammary glands and were fixed in formalin for 24 h. The fixed samples were processed for the usual histological procedures for hematoxylin and eosin stains, the counter staining of ultra-thin paraffin sections (5 µm; Micro HM 360® Microtome, Marshall Scientific, Hampton Virginia, USA). The stained sections were examined under a light microscope (Olympus B × 46) and were digitally photographed using its connected Olympus DP 21 digital camera (Olympus Corporation, Tokyo, Japan).

Compound | Tmax ([1]; female, rat, plasma, 100 mg/kg, sole administration of 5-FU in saline) [min] | Cmax ([1]; female, 5-FU alone in saline, 100 mg/kg, intratumoral, read-out: Cmax) [ng/mL] | time within which in vivo release ended ([1]; free 5-FU solution, 100 mg/kg in saline) [h] | elimination half-life (t1/2) ([1]; free 5-FU solution, first order) [min] | % Inhibition of tumor volume ([2]; 5 days after treatment) [%] | % Inhibition of tumor volume ([2]; 10 days after treatment) [%] | % Inhibition of tumor volume ([2]; 15 days after treatment) [%] | duration of quantitative release from hydrogel [3] | drug released from hydrogel within the first day [3] [%] | drug released from hydrogel within the second day [3] [%] | completeness of the release profile of 5-FU ([3]; drug concentration 0.1%) [days] | completeness of the release profile of 5-FU ([3]; drug concentration 0.3%) [days] | completeness of the release profile of 5-FU ([3]; drug concentration 0.5%) [days] | half-life [4] [min] | histopathological finding in mammary gland tissue (mammary gland tissues) | Cmax ([1]; female, other: intratumoral injection, MTX 40 mg/kg, combined with 5-FU in saline, read-out: Cmax of MTX) [ng/mL]
O=c1[nH]cc(F)c(=O)[nH]1 [5-FU, 5-fluorouracil] | 60 | 25200 | ≤ 7 | 30 | -25 | -90 | -185 | two weeks | 15 | 38 | ≤ 14 | ≤ 18 | ≤ 21 | 10 to 20 | Only mild improvement | 
CN(Cc1cnc2nc(N)nc(N)c2n1)c1ccc(C(=O)N[C@@H](CCC(=O)O)C(=O)O)cc1 [MTX, methotrexate] |  |  |  |  |  |  |  | two weeks | 40 | 60 |  |  |  |  |  | 15200
